Results taken from ChEMBL document CHEMBL1201862, “PubChem BioAssay data set” (2004).
Calls of active or inactive are those of the source.

Legend:
[1] = cytotoxicity toward NIH3T3 fibroblasts, dose response, counter-screen, cell-based, ATP luminescence, mouse fibroblasts (AID 2010); type: functional;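 further: cells exposed to compound for about 90 hours before reading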
[2] = inhibitors of intracellular T. cruzi replication, confirmation, NIH3T3 host cells, beta-gal luminescence (AID 2044); type: functional, cell-based;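 further: intracellular parasites grown in NIH/3T3 mouse fibroblasts as host cells; luminescent beta-galactosidase reporter signal from transgenic T. cruzi replicating inside host cells; inhibitors lower the luminescence signal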
Cytochrome P450 2C19 = Cytochrome P450 2C19 (Homo sapiens, UniProt P33261); test: Cytochrome panel assay with activity outcomes. Panel member name: p450-cyp2c19 Compounds with AC50 equal or less than 10 uM are considered active; type: functional
Cytochrome P450 1A2 = biological target: T1, Cytochrome P450 1A2 (Homo sapiens, UniProt P05177);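 further: PubChem cytochrome P450 panel assay, CYP1A2 panel member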
T1 sequence (P05177 whole entry): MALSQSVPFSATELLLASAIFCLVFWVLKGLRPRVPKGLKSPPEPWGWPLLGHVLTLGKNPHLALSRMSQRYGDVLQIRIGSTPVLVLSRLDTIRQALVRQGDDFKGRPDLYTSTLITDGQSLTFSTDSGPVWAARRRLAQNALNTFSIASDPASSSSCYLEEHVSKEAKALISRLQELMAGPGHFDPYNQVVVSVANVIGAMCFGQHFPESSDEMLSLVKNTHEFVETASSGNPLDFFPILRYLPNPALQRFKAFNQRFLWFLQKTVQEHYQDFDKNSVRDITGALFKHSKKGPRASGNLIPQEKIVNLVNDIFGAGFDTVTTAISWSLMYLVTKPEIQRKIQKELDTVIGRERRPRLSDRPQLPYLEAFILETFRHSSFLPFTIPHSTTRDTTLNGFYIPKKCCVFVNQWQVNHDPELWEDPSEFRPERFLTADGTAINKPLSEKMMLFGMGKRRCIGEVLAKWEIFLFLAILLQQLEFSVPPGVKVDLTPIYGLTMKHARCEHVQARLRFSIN

Cytochrome P450 2C9 = Cytochrome P450 2C9 (Homo sapiens, UniProt P11712)
Cytochrome P450 3A4 = Cytochrome P450 3A4 (Homo sapiens, UniProt P08684);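 further: CYP3A4 tested as one member of a cytochrome P450 panel screen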
Streptococcus = test: Group A Streptococcus viability loss, dose response, counter-screen for streptokinase expression inhibitor project, luminescence, BacTiterGlo (AID 1915); type: functional, organism-based;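 further: potency for reduction of bacterial viability or growth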
[3] = system: Streptococcus sp. 'group A'; test: growth inhibition of control SK(-) GAS strain, dose response, counter-screen for streptokinase expression inhibitor project, luminescence, kanamycin, BacTiterGlo, confirmation (AID 1900); type: functional, organism-based
[4] = Luminescence Cell-Based Dose Response HTS to Identify Inhibitors of 5'UTR Stem-Loop Driven Prion Protein mRNA Translation in H4 Neuroglioblastoma Cells. [Related pubchem assays: 1827 (Project Summary), 1813 (Primary HTS)]; type: functional
[5] = inhibitors of SNCA 5'UTR-driven reporter translation, confirmation, H4 neuroglioma cells, luminescence (AID 1988); type: functional, cell-based

Chain of Cytochrome P450 3A4 (P08684 whole entry): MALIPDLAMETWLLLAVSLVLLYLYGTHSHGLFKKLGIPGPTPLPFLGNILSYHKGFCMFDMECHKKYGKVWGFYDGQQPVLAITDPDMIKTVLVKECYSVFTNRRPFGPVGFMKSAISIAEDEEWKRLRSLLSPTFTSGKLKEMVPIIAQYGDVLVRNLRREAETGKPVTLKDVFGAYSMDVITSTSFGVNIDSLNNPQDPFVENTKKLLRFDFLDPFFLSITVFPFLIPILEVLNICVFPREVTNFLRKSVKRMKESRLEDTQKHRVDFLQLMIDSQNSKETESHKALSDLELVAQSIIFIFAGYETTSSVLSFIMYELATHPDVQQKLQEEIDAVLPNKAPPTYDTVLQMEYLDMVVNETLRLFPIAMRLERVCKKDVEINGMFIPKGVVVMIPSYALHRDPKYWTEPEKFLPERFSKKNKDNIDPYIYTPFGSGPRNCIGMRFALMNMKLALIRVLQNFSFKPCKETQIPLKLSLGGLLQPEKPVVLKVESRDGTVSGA
Chain of Cytochrome P450 2C19 (P33261 whole entry): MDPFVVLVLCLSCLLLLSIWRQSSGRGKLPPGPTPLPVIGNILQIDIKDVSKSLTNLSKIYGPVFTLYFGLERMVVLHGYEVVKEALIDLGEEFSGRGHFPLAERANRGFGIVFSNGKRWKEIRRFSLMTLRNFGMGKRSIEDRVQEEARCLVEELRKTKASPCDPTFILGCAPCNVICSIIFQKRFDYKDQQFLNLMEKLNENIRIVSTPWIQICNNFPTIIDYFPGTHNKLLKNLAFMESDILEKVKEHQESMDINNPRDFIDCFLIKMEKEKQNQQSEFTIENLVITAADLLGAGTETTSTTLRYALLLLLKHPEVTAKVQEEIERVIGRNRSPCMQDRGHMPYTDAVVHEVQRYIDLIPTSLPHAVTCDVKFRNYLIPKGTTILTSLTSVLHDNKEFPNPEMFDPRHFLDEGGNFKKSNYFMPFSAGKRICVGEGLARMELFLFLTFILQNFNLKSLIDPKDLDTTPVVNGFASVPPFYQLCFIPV
Chain of Cytochrome P450 2C9 (P11712 whole entry): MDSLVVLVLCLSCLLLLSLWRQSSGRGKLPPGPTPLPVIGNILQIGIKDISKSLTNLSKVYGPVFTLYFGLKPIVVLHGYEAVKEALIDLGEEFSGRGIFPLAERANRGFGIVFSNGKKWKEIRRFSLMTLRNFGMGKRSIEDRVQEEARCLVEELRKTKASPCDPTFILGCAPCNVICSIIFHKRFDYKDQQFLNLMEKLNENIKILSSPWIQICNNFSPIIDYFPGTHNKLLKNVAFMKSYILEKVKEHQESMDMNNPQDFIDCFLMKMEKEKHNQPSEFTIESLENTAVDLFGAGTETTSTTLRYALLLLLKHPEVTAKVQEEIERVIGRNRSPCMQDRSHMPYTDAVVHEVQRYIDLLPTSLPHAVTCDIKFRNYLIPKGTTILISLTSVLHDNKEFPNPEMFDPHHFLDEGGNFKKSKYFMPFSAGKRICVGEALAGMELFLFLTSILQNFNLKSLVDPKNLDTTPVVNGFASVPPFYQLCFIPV

O=S(=O)(c1ccc2ccccc2c1)N1CCC(c2nc(-c3ccncc3)no2)CC1
EC50 [1]: > 60 µM (not active)
EC50 [2]: 0.564 µM (active)

CCOc1c2ccc(C(=O)NCCCCc3ccccc3)cc2nn1CC
AC50 (Cytochrome P450 2C19; read-out: AC50): 8.91 µM (inconclusive)
AC50 (Cytochrome P450 1A2): 6.31 µM (inconclusive)

CC(C)(C)c1cc(Br)c(O)c(CN(Cc2cc(C(C)(C)C)cc(Br)c2O)C2CCCCC2)c1
AC50 (Cytochrome P450 1A2): 5.01 µM (inconclusive)
AC50 (Cytochrome P450 2C9): 3.16 µM (inconclusive)

Cc1nc2cnc(N3CCN(C)CC3)nc2n(CCc2ccccc2)c1=O
AC50 (Cytochrome P450 3A4): 15.8 µM (inconclusive)

Cn1cccc1C(=O)N1CCC2(CCN(Cc3ccncc3)CC2)CC1
AC50 (Cytochrome P450 2C19; read-out: AC50): 15.8 µM (inconclusive)
AC50 (Cytochrome P450 3A4): 12.6 µM (inconclusive)
AC50 (Cytochrome P450 1A2): 15.8 µM (inconclusive)

COc1nnc(OC)c2ccccc12
AC50 (Cytochrome P450 2C19; read-out: AC50): 0.0631 µM (inconclusive)

CN(C)CN1C(=O)S/C(=C2/C(=O)N(CN(C)C)c3ccccc32)C1=O
AC50 (Cytochrome P450 1A2): 0.794 µM (inconclusive)

CC(C)Oc1ccc(CSC(=N)N)cc1
AC50 (Cytochrome P450 2C19; read-out: AC50): 5.62 µM (inconclusive)
AC50 (Cytochrome P450 1A2): 22.4 µM (inconclusive)

COc1ccc(Oc2ncc3nc(C)c(=O)n(CCC#N)c3n2)cc1
AC50 (Cytochrome P450 1A2): 25.1 µM (inconclusive)

COC(=O)[C@@]1(Cc2ccc(F)cc2)[C@H]2c3cc(C(=O)N4CCCC4)n(CCF)c3C[C@H]2CN1C(=O)c1ccccc1
AC50 (Cytochrome P450 1A2): 15.8 µM (inconclusive)

CCN1CCN(Cc2ccc(NC(=O)c3cc(NC(=O)c4cc(-c5ccc(OC)cc5)[nH]n4)cc(OC)c3)cc2C(F)(F)F)CC1
EC50 (Streptococcus): 7.21 µM (active)
EC50 [3]: 4.15 µM (active)

COc1cccc(/N=c2\oc3c(C)ncc(CO)c3cc2C(N)=O)c1
AC50 (Cytochrome P450 2C19): inconclusive
AC50 (Cytochrome P450 2C9): 11.2 µM (inconclusive)

Cc1nc2cnc(N3CCNCC3)nc2n(C)c1=O
AC50 (Cytochrome P450 2C19): inconclusive
AC50 (Cytochrome P450 3A4): 15.8 µM (inconclusive)

NC(=S)SCCC(=O)O
AC50 (Cytochrome P450 1A2): 1.58 µM (inconclusive)

Fc1cccc(C[n+]2csc3ccccc32)c1
EC50 [1]: > 60 µM (not active)
EC50 [2]: 1.99 µM (active)

O=c1cnc2cnc(N3CCNCC3)nc2n1Cc1ccc(F)cc1
AC50 (Cytochrome P450 2C9): 20 µM (inconclusive)

COc1ccc(N(C(=O)COc2ccccc2OC)S(=O)(=O)c2ccc(C)cc2)cc1
AC50 (Cytochrome P450 1A2): 4.47 µM (inconclusive)

Cc1ccc(S(=O)(=O)N[C@H](CN)C(=O)O)cc1
AC50 (Cytochrome P450 2C19): inconclusive

CCSc1nnc2n(N)c(=O)c3ccccc3n12
AC50 (Cytochrome P450 3A4): 15.8 µM (inconclusive)

N#C[C@H](Cc1ccc(O)cc1)c1ccc(O)cc1
AC50 (Cytochrome P450 2C19; read-out: AC50): 2 µM (inconclusive)
AC50 (Cytochrome P450 2C9): 39.8 µM (inconclusive)

CC(C)(C)c1ccccc1OCC(=O)Nc1ccccc1C(=O)NCc1cccnc1
EC50 [1]: > 60 µM (not active)
EC50 [2]: 3.61 µM (active)

CNc1cc(-c2ccccc2CN(C)C)ncn1
AC50 (Cytochrome P450 1A2): 31.6 µM (inconclusive)

CCN(C(=O)COC(=O)c1cc(-c2ccc3cc(OC)ccc3c2)nc2ccccc12)C1CCS(=O)(=O)C1 (configuration not stated)
EC50 [4]: 13.9 µM (active)
EC50 [5]: 11 µM (active)

COc1cccc(CNCCNC(=O)c2nonc2N)c1
AC50 (Cytochrome P450 1A2): 39.8 µM (inconclusive)

Cc1cc(C(=O)N2CCCC(N3CCN(c4ccccc4C)CC3)C2)n(C)n1 (configuration not stated)
EC50 [1]: > 30 µM (not active)
EC50 [2]: > 30 µM (not active)

CC(C)CCn1nnnc1C(c1ccc(F)cc1)N1CCN(C(=O)c2ccco2)CC1 (configuration not stated)
AC50 (Cytochrome P450 2C9): 11.2 µM (inconclusive)

CCOc1c2ccc(C(=O)NCc3ccco3)cc2nn1CC
AC50 (Cytochrome P450 3A4): 31.6 µM (inconclusive)
AC50 (Cytochrome P450 2C9): 10 µM (inconclusive)

O=C(NCc1cccnc1)c1ccc(-c2cc(Cl)ccc2Cl)o1
EC50 [1]: > 30 µM (not active)
EC50 [2]: 1.72 µM (active)

O=C(O)C1CCN(c2ncnc3ccc(-c4ccccc4C(F)(F)F)cc23)CC1
AC50 (Cytochrome P450 3A4): 39.8 µM (inconclusive)

CCCS(=O)(=O)N1CCCC(C(=O)NCCN2CCC(Cc3ccccc3)CC2)C1 (configuration not stated)
AC50 (Cytochrome P450 2C9): 5.01 µM (inconclusive)

CCCCC(=O)Nc1nnc(SCC(=O)NC2CCCC2)s1
AC50 (Cytochrome P450 2C19; read-out: AC50): 35.5 µM (inconclusive)

Cc1cc(C)c(C#N)c(SCC(=O)Nc2nnc(-c3ccccc3)s2)n1
EC50 [1]: > 30 µM (not active)
EC50 [2]: > 30 µM (not active)

Cc1c(S(=O)(=O)O)ccc(/N=N\c2c(O)c(C(=O)O)cc3ccccc23)c1Cl
AC50 (Cytochrome P450 1A2): 5.01 µM (inconclusive)

CC(=O)OC[C@@H]1O[C@H](C/C=N\OCC[C@H]2C=C[C@H](OC(C)=O)[C@@H](COC(C)=O)O2)C=C[C@@H]1OC(C)=O
AC50 (Cytochrome P450 2C19): inconclusive
AC50 (Cytochrome P450 3A4): 3.16 µM (inconclusive)

Cc1nc2cnc(N3CCNCC3)nc2n(Cc2ccc(F)cc2)c1=O
AC50 (Cytochrome P450 2C19): inconclusive
AC50 (Cytochrome P450 2C9): 25.1 µM (inconclusive)

C=CCNC(=O)c1onc(CSc2ccc(F)cc2)c1C(=O)O
AC50 (Cytochrome P450 3A4): 22.4 µM (inconclusive)

CC(C)(Oc1ccc(-c2cccc3ccccc23)cc1)C(=O)O
AC50 (Cytochrome P450 2C19): inconclusive
AC50 (Cytochrome P450 2C9): 0.398 µM (inconclusive)

CCCn1c(=O)c2c(ncn2C)n(CCC)c1=O
AC50 (Cytochrome P450 3A4): 20 µM (inconclusive)

Cc1ccc(C)c(NC(=O)C2(C)CC3c4ccccc4C2c2ccccc23)c1 (configuration not stated)
AC50 (Cytochrome P450 2C19; read-out: AC50): 0.00562 µM (inconclusive)
AC50 (Cytochrome P450 2C9): 10 µM (inconclusive)

COc1ccc(/C=N/NC(=O)CCCC(=O)NC2CCCCC2)cc1
AC50 (Cytochrome P450 2C19; read-out: AC50): 14.1 µM (inconclusive)
AC50 (Cytochrome P450 2C9): 10 µM (inconclusive)

Cc1cccc(NC(=O)c2cc(=O)c3ccccc3o2)n1
AC50 (Cytochrome P450 2C19; read-out: AC50): 14.1 µM (inconclusive)
AC50 (Cytochrome P450 3A4): 25.1 µM (inconclusive)
AC50 (Cytochrome P450 2C9): 3.16 µM (inconclusive)

COCc1nc2c([nH]1)c(=O)n(C)c(=O)n2CC(C)C
AC50 (Cytochrome P450 3A4): 1.26 µM (inconclusive)

CC(=O)c1ccc(N2CCN(c3ccc(S(=O)(=O)NCCN(C)C)cc3[N+](=O)[O-])CC2)cc1
EC50 [1]: > 16 µM (not active)
EC50 [2]: 0.454 µM (active)

COc1ccccc1CNc1cc(-c2ccccc2Cl)ncn1
AC50 (Cytochrome P450 3A4): 39.8 µM (inconclusive)

C=C[C@]1(C)C[C@@H](OC(=O)CSCCN(CC)CC)[C@]2(C)C(C)CC[C@]3(CCC(=O)[C@H]32)[C@@H](C)[C@@H]1O (some centres not stated)
EC50 (Streptococcus): 0.182 µM (active)
EC50 [3]: < 0.06 µM (active)

O=C(NC1CCCCC1)C1CC=CCC1C(=O)OCC(Cl)=C(Cl)Cl (configuration not stated)
AC50 (Cytochrome P450 1A2): 25.1 µM (inconclusive)

C=CCNC(=O)c1ccc(-c2nc(-c3ccc(Cl)c(Cl)c3)cs2)cc1
AC50 (Cytochrome P450 2C19; read-out: AC50): 28.2 µM (inconclusive)
AC50 (Cytochrome P450 3A4): 7.94 µM (inconclusive)

CC(C)N(CCNC(=O)C1CCN(S(=O)(=O)N2CCOCC2)CC1)Cc1ccccc1
AC50 (Cytochrome P450 2C19; read-out: AC50): 39.8 µM (inconclusive)
AC50 (Cytochrome P450 2C9): 20 µM (inconclusive)

N#CCCn1c(=O)c(-c2ccccc2)nc2cnc(N3CCOCC3)nc21
AC50 (Cytochrome P450 1A2): 10 µM (inconclusive)

Cc1cc(N2CCN(c3ccccc3)CC2)nc(NCc2ccccc2)n1
EC50 [1]: > 30 µM (not active)
EC50 [2]: 0.809 µM (active)

CCCS(=O)(=O)N1CCCC(C(=O)N2CCN(c3ccccc3)CC2)C1 (configuration not stated)
AC50 (Cytochrome P450 2C19; read-out: AC50): 6.31 µM (inconclusive)
AC50 (Cytochrome P450 3A4): 14.1 µM (inconclusive)
AC50 (Cytochrome P450 1A2): 0.00501 µM (inconclusive)
AC50 (Cytochrome P450 2C9): 14.1 µM (inconclusive)

O=C(c1cccc(C(F)(F)F)c1)C1CCCN(Cc2ccc(OCCO)cc2)C1 (configuration not stated)
EC50 [1]: > 30 µM (not active)
EC50 [2]: 0.402 µM (active)

COc1ccc(C(=O)Nc2cc(OC)cc(OC)c2)cc1
AC50 (Cytochrome P450 2C9): 22.4 µM (inconclusive)

CCN1CCN(c2ccc(S(=O)(=O)N3CCCCC3)cc2NC(=O)c2ccc(C)o2)CC1
EC50 [1]: > 60 µM (not active)
EC50 [2]: 2.01 µM (active)

CCN(c1ccccc1)S(=O)(=O)c1cc(C(=O)Nc2ccc(Br)cc2)ccc1F
EC50 [1]: > 60 µM (not active)
EC50 [2]: 2.66 µM (active)

COc1ccccc1CNc1ncnc2ccc(-c3cccnc3)cc12
AC50 (Cytochrome P450 2C19; read-out: AC50): 20 µM (inconclusive)

COc1ccccc1-c1cc2nc(C)c(CCC(=O)NCc3ccc(F)cc3)c(C)n2n1
EC50 [1]: > 60 µM (not active)
EC50 [2]: 2.06 µM (active)

Cc1ccc2c(c1)C1CN(C)CCC1N2C(=S)NC(=O)c1ccc(Br)cc1 (configuration not stated)
EC50 [1]: 41.5 µM (active)
EC50 [2]: 0.828 µM (active)

C/C(=N/CCN1CCN(C(=S)Nc2ccccc2)CC1)C1=C(O)CC(C)(C)CC1=O
AC50 (Cytochrome P450 2C9): 28.2 µM (inconclusive)

CCCCN1C(=O)CCC(C(=O)O)C1c1ccccc1 (configuration not stated)
AC50 (Cytochrome P450 2C19): inconclusive
